biological target: PRMT5-MEP50 (Homo sapiens, UniProt O14744); assay: PRMT5 Assay (PRMT5 biochemical assay); conditions: PRMT5 biochemical assay; read-out: PRMT5 IC50
Experimental: Assays were performed in a 25 μl-volume in 384-well V-bottom polypropylene microplates (Greiner Bio-One, cat. No. 781280) at ambient temperature. Optimized 1× assay buffer was 20 mM Tris-HCl pH 8.0, 1 mM DTT, […]. For compound screening PRMT5-MEP50 (final concentration, f.c.=2.5 nM) was added using a Multidrop Combi (ThermoFisher Scientific, Waltham, Mass.) and preincubated for 5 min. Reactions were started by adding 3′ biotinylated histone H4 peptide acetylated on serine 1 (Ac-[…]-Biotin) (f.c.=100 nM) and 3H-SAM (f.c.=250 nM) substrates. Reactions proceeded for 60 minutes and were quenched with excess non-radioactive SAM (f.c.=15 μM). The reactions were then transferred to streptavidin-coated flashplates and incubated for 2 hours at 25° C. Following two washing cycles with 0.1% Tween-20, the plates were sealed and read on a TopCount (PerkinElmer, Waltham, Mass.) plate-based scintillation counter. For determination of kinetic parameters, reaction times were optimized so that measurements were taken during the initial velocity phase of the reaction.

Sequence of PRMT5-MEP50 (O14744 whole entry): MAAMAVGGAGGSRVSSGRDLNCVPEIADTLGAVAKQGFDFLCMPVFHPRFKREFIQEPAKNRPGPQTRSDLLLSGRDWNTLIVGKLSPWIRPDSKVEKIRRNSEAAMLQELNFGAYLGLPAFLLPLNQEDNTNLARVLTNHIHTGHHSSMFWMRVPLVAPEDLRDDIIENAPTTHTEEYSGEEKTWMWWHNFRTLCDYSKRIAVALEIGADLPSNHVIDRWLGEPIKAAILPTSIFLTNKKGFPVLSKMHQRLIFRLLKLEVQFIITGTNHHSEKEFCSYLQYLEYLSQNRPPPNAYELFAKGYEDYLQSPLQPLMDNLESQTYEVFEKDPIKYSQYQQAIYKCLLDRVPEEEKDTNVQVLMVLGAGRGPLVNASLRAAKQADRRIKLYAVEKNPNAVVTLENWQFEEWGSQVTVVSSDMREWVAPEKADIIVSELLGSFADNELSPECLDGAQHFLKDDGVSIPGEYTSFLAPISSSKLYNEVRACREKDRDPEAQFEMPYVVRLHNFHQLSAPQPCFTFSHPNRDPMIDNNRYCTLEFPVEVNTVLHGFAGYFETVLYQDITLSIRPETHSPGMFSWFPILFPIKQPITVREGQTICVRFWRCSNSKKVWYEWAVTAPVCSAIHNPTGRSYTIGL
Sequence of PRMT5-MEP50 (Q9BQA1 whole entry partner): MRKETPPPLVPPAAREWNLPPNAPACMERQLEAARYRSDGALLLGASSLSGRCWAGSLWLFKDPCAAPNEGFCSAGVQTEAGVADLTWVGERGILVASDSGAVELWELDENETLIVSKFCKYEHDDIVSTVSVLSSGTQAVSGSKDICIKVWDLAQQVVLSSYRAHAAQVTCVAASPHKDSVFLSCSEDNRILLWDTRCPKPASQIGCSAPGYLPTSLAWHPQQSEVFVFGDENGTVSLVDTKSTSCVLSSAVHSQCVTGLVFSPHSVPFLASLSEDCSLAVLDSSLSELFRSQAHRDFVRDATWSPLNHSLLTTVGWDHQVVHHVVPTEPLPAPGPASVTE

SMILES | IC50 [µM]
COc1cccc(CC[C@H]2C[C@@H](n3ccc4c(N)ncnc43)[C@H](O)[C@@H]2O)n1 [I-114] | > 1
CC(C)Nc1ccc2ccc(CC[C@H]3C[C@@H](n4ccc5c(N)ncnc54)[C@H](O)[C@@H]3O)cc2n1 [I-116] | < 0.01
Nc1ncnc2c1ccn2[C@@H]1C[C@H](CCc2cccnc2)[C@@H](O)[C@H]1O [I-117] | 0.01 to 0.1
Cc1nc(N)c2ccn([C@@H]3C[C@H](CCc4ccc5ccc(N)nc5c4)[C@@H](O)[C@H]3O)c2n1 [I-119] | < 0.01
Nc1ncnc2c1ccn2[C@@H]1C[C@H](CCc2ccc3ccc(NCc4ccccc4)nc3c2)[C@@H](O)[C@H]1O [I-121] | < 0.01
Nc1ncnc2c1ccn2[C@@H]1C[C@H](CCc2ccc3ccc(Nc4ccccc4)nc3c2)[C@@H](O)[C@H]1O [I-122] | < 0.01
Nc1ccc2ccc(OC[C@H]3C[C@@H](n4ccc5c(N)ncnc54)[C@H](O)[C@@H]3O)cc2n1 [I-124] | < 0.01
Nc1ncnc2c1ccn2[C@@H]1C[C@H](CCc2cnc3cccnc3c2)[C@@H](O)[C@H]1O [I-126] | < 0.01
Nc1ncnc2c1ccn2[C@@H]1C[C@H](CCc2ccc3cncnc3c2)[C@@H](O)[C@H]1O [I-127] | < 0.01
Nc1ncnc2c1ccn2[C@@H]1C[C@H](CCc2ccc3cccnc3n2)[C@@H](O)[C@H]1O [I-128] | < 0.01
CNc1ncnc2c1ccn2[C@@H]1C[C@H](CCc2ccc3ccc(N)nc3c2)[C@@H](O)[C@H]1O [I-129] | < 0.01
Nc1ccc2ccc(CC[C@H]3C[C@@H](n4ccc5c(N)ncnc54)[C@H](O)[C@@H]3O)cc2n1 [I-138] | < 0.01
Nc1ccc2ccc(CO[C@H]3C[C@@H](n4ccc5c(N)ncnc54)[C@H](O)[C@@H]3O)cc2n1 [I-139] | < 0.01

same assay, conditions: read-out: PRMT5 IC50; PRMT5 biochemical assay

SMILES | IC50 [µM]
CCc1cc(N)c2ccc(OC[C@H]3O[C@@H](n4cc(-c5ccn(C)n5)c5c(N)ncnc54)[C@@H](F)[C@@H]3O)cc2n1 [I-145] | 0.1 to 1
CCCC(=O)c1cn([C@@H]2O[C@H](COc3ccc4ccc(NC)nc4c3)[C@@H](O)[C@@H]2F)c2ncnc(N)c12 [I-146] | > 1
CNc1ccc2ccc(OC[C@H]3O[C@@H](n4cc(-c5cc(C)n(C)n5)c5c(N)ncnc54)[C@@H](F)[C@@H]3O)cc2n1 [I-147] | > 1

biological target: METTL3/METTL14 (Homo sapiens, UniProt Q86U44); assay: METTL3-14 Standard Enzyme Assay (METTL3 biochemical assay); conditions: METTL3 biochemical assay; read-out: METTL3 IC50
Experimental: Assays were performed in a 25 μl-volume in 384-well V-bottom polypropylene microplates (Greiner Bio-One, cat. No. 781280) at ambient temperature. Optimized 1× assay buffer was 20 mM HEPES pH 7.5, 50 mM KCl, 250 μM MgCl2, 1 mM DTT, 0.01% Tween, 0.01% BSG, 0.004 U/μl RNAseOUT (cat. No. 10777019, ThermoFisher Scientific, Waltham, Mass.). For compound screening METTL3/METTL14 (final concentration, f.c.=2.5 nM) was added using a Multidrop Combi (ThermoFisher Scientific, Waltham, Mass.) and preincubated for 5 min. Reactions were started by adding 3′ biotinylated RNA ([…]-biotin) (f.c.=100 nM) and 3H-SAM (f.c.=100 nM) substrates. Reactions proceeded for 30 minutes and were quenched with excess non-radioactive SAM (f.c.=15 μM). The reactions were then transferred to streptavidin-coated flashplates and incubated for 2 hours at 25° C. Following two washing cycles with 0.1% Tween-20, the plates were sealed and read on a TopCount (PerkinElmer, Waltham, Mass.) plate-based scintillation counter. For determination of kinetic parameters, reaction times were optimized so that measurements were taken during the initial velocity phase of the reaction.

Sequence of METTL3/METTL14 (Q86U44 whole entry, species assumed): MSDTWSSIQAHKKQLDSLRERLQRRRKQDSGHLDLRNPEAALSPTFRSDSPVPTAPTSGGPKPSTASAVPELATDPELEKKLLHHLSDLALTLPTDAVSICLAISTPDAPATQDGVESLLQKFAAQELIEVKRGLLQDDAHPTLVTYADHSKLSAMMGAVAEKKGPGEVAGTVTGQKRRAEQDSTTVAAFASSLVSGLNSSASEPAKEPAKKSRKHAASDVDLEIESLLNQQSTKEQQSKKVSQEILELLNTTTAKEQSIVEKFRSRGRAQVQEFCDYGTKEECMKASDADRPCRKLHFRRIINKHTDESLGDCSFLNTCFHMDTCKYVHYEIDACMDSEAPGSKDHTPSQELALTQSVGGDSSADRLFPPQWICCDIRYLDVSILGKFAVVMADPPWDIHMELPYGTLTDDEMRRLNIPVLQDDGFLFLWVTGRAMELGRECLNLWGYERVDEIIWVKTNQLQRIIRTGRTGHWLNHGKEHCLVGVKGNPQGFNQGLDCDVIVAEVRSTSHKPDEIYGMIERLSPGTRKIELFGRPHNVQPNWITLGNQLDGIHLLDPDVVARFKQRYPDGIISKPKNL
Sequence of METTL3/METTL14 (Q9HCE5 whole entry partner, species assumed): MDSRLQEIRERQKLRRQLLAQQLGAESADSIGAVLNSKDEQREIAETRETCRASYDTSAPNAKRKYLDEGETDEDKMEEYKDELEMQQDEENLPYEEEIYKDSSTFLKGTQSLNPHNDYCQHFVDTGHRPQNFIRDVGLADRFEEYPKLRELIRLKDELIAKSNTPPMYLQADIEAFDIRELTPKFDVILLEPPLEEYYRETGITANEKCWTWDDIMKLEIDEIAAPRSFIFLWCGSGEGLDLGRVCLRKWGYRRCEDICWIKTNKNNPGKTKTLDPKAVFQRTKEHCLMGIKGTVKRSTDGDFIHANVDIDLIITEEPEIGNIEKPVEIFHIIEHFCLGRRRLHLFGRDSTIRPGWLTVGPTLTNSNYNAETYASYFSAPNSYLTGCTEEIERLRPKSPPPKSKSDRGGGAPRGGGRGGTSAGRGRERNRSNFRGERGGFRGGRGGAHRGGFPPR

SMILES | IC50 [µM]
COc1cccc(CC[C@H]2C[C@@H](n3ccc4c(N)ncnc43)[C@H](O)[C@@H]2O)n1 [I-114] | > 1
CC(C)Nc1ccc2ccc(CC[C@H]3C[C@@H](n4ccc5c(N)ncnc54)[C@H](O)[C@@H]3O)cc2n1 [I-116] | 0.01 to 0.1
Nc1ncnc2c1ccn2[C@@H]1C[C@H](CCc2cccnc2)[C@@H](O)[C@H]1O [I-117] | > 1
Cc1nc(N)c2ccn([C@@H]3C[C@H](CCc4ccc5ccc(N)nc5c4)[C@@H](O)[C@H]3O)c2n1 [I-119] | > 1
Nc1ncnc2c1ccn2[C@@H]1C[C@H](CCc2ccc3ccc(NCc4ccccc4)nc3c2)[C@@H](O)[C@H]1O [I-121] | 0.1 to 1
Nc1ncnc2c1ccn2[C@@H]1C[C@H](CCc2ccc3ccc(Nc4ccccc4)nc3c2)[C@@H](O)[C@H]1O [I-122] | > 1
Nc1ccc2ccc(OC[C@H]3C[C@@H](n4ccc5c(N)ncnc54)[C@H](O)[C@@H]3O)cc2n1 [I-124] | 0.1 to 1
Nc1ncnc2c1ccn2[C@@H]1C[C@H](CCc2cnc3cccnc3c2)[C@@H](O)[C@H]1O [I-126] | > 1
Nc1ncnc2c1ccn2[C@@H]1C[C@H](CCc2ccc3cncnc3c2)[C@@H](O)[C@H]1O [I-127] | > 1
Nc1ncnc2c1ccn2[C@@H]1C[C@H](CCc2ccc3cccnc3n2)[C@@H](O)[C@H]1O [I-128] | > 1
CNc1ncnc2c1ccn2[C@@H]1C[C@H](CCc2ccc3ccc(N)nc3c2)[C@@H](O)[C@H]1O [I-129] | > 1
Nc1ccc2ccc(CC[C@H]3C[C@@H](n4ccc5c(N)ncnc54)[C@H](O)[C@@H]3O)cc2n1 [I-138] | 0.1 to 1
Nc1ccc2ccc(CO[C@H]3C[C@@H](n4ccc5c(N)ncnc54)[C@H](O)[C@@H]3O)cc2n1 [I-139] | < 0.01

same assay, conditions: read-out: METTL3 IC50; METTL3 biochemical assay

SMILES | IC50 [µM]
CCc1cc(N)c2ccc(OC[C@H]3O[C@@H](n4cc(-c5ccn(C)n5)c5c(N)ncnc54)[C@@H](F)[C@@H]3O)cc2n1 [I-145] | < 0.01
CCCC(=O)c1cn([C@@H]2O[C@H](COc3ccc4ccc(NC)nc4c3)[C@@H](O)[C@@H]2F)c2ncnc(N)c12 [I-146] | 0.01 to 0.1
CNc1ccc2ccc(OC[C@H]3O[C@@H](n4cc(-c5cc(C)n(C)n5)c5c(N)ncnc54)[C@@H](F)[C@@H]3O)cc2n1 [I-147] | 0.01 to 0.1

biological target: METTL1/WDR4 (Homo sapiens, UniProt Q9UBP6); assay: METTL1 Assay (METTL1 biochemical assay); conditions: METTL1 biochemical assay; read-out: METTL1 IC50
Experimental: Assays were performed in a 25 μl-volume in 384-well V-bottom polypropylene microplates (Greiner Bio-One, cat. No. 781280) at ambient temperature. Optimized 1× assay buffer was 20 mM HEPES pH 7.5, 50 mM KCl, 250 μM MgCl2, 1 mM DTT, 0.01% Tween, 0.01% BSG, 0.004 U/μl RNAseOUT (cat. No. 10777019, ThermoFisher Scientific, Waltham, Mass.). For compound screening METTL1/WDR4 (final concentration, f.c.=6.25 nM) was added using a Multidrop Combi (ThermoFisher Scientific, Waltham, Mass.) and preincubated for 5 min. Reactions were started by adding 3′ biotinylated RNA ([…]-biotin) (f.c.=25 nM) and 3H-SAM (f.c.=60 nM) substrates. Reactions proceeded for 20 minutes and were quenched with excess non-radioactive SAM (f.c.=15 μM). The reactions were then transferred to streptavidin-coated flashplates and incubated for 2 hours at 25° C. Following two washing cycles with 0.1% Tween-20, the plates were sealed and read on a TopCount (PerkinElmer, Waltham, Mass.) plate-based scintillation counter. For determination of kinetic parameters, reaction times were optimized so that measurements were taken during the initial velocity phase of the reaction.

Sequence of METTL1/WDR4 (Q9UBP6 whole entry, species assumed): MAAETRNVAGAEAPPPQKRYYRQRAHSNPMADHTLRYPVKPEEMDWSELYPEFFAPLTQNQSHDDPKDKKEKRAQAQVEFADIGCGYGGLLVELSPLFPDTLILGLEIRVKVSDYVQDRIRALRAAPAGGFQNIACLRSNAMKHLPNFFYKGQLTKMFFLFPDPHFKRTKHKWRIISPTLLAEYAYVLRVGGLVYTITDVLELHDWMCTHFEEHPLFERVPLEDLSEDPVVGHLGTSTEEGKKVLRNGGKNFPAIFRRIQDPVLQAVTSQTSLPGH
Sequence of METTL1/WDR4 (P57081 whole entry partner, species assumed): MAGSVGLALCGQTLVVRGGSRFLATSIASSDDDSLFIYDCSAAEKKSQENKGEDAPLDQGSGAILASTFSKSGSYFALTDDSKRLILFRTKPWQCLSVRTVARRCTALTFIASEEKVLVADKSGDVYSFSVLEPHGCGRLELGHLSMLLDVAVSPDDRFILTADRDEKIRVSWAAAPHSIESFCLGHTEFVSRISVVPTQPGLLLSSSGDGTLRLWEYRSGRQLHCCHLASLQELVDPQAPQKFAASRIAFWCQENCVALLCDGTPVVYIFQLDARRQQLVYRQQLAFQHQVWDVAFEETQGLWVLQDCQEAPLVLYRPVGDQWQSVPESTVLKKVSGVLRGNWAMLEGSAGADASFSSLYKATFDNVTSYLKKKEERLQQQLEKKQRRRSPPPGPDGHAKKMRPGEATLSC

SMILES | IC50 [µM]
CCc1cc(N)c2ccc(OC[C@H]3O[C@@H](n4cc(-c5ccn(C)n5)c5c(N)ncnc54)[C@@H](F)[C@@H]3O)cc2n1 [I-145] | > 1
CCCC(=O)c1cn([C@@H]2O[C@H](COc3ccc4ccc(NC)nc4c3)[C@@H](O)[C@@H]2F)c2ncnc(N)c12 [I-146] | > 1
CNc1ccc2ccc(OC[C@H]3O[C@@H](n4cc(-c5cc(C)n(C)n5)c5c(N)ncnc54)[C@@H](F)[C@@H]3O)cc2n1 [I-147] | > 1

same assay, conditions: read-out: METTL1 IC50; METTL1 biochemical assay

SMILES | IC50 [µM]
COc1cccc(CC[C@H]2C[C@@H](n3ccc4c(N)ncnc43)[C@H](O)[C@@H]2O)n1 [I-114] | > 1
CC(C)Nc1ccc2ccc(CC[C@H]3C[C@@H](n4ccc5c(N)ncnc54)[C@H](O)[C@@H]3O)cc2n1 [I-116] | > 1
Nc1ncnc2c1ccn2[C@@H]1C[C@H](CCc2cccnc2)[C@@H](O)[C@H]1O [I-117] | > 1
Cc1nc(N)c2ccn([C@@H]3C[C@H](CCc4ccc5ccc(N)nc5c4)[C@@H](O)[C@H]3O)c2n1 [I-119] | > 1
Nc1ncnc2c1ccn2[C@@H]1C[C@H](CCc2ccc3ccc(NCc4ccccc4)nc3c2)[C@@H](O)[C@H]1O [I-121] | > 1
Nc1ncnc2c1ccn2[C@@H]1C[C@H](CCc2ccc3ccc(Nc4ccccc4)nc3c2)[C@@H](O)[C@H]1O [I-122] | > 1
Nc1ccc2ccc(OC[C@H]3C[C@@H](n4ccc5c(N)ncnc54)[C@H](O)[C@@H]3O)cc2n1 [I-124] | > 1
Nc1ncnc2c1ccn2[C@@H]1C[C@H](CCc2cnc3cccnc3c2)[C@@H](O)[C@H]1O [I-126] | > 1
Nc1ncnc2c1ccn2[C@@H]1C[C@H](CCc2ccc3cncnc3c2)[C@@H](O)[C@H]1O [I-127] | > 1
Nc1ncnc2c1ccn2[C@@H]1C[C@H](CCc2ccc3cccnc3n2)[C@@H](O)[C@H]1O [I-128] | > 1
CNc1ncnc2c1ccn2[C@@H]1C[C@H](CCc2ccc3ccc(N)nc3c2)[C@@H](O)[C@H]1O [I-129] | > 1
Nc1ccc2ccc(CC[C@H]3C[C@@H](n4ccc5c(N)ncnc54)[C@H](O)[C@@H]3O)cc2n1 [I-138] | > 1
Nc1ccc2ccc(CO[C@H]3C[C@@H](n4ccc5c(N)ncnc54)[C@H](O)[C@@H]3O)cc2n1 [I-139] | > 1
